Key:
Assay type in all cases: cell-based
[1] = system: human lung cancer cells (H358); test: Cell death in lung cancer spheroids, PrestoBlue; details: techniques of Example 1
Description: (§1) The respective cells were individually cultured in a growth medium prepared using RPMI-1640 medium containing 11.1 mM D-glucose with 10% fetal bovine serum, 10 mM HEPES, 2 mM L-glutamine, 1 mM sodium pyruvate, 0.05 mM 2-mercaptoethanol, and Antibiotic-Antimycotic. These cells were maintained in T75 tissue culture flasks in a humidified incubator at 37° C. and 5% CO2. The media were changed on a third day after cell plating, and the cells were passaged on day 5 by trypsinization.
(§2) Custom-made micromolds with 100 um diameter wells were loaded with the cells (U.S. Pat. No. 8,735,154, incorporated by reference herein). The media were changed every day by partial replacement. Cell aggregates were allowed to form in the micromolds for 72 hours and then were transferred to a 100 mm non-treated tissue culture dishes for 3 additional days. The spheroids were passed through 70 um and 100 μm cell strainers (#3431751 and #43152, Corning, Tewksbury, Mass.) and maintained in HEPES Balanced Salt Solution comprised of: 20 mM HEPES, 114 mM NaCl, 4.7 mM KCl, 1.2 mM KH2PO4, 1.16 mM MgSO4, 2.5 mM CaCl2, 25.5 mM NaHCO3 and 0.2% bovine serum albumin (fatty acid free), pH 7.2.
The lymphomas treatment methods used were identical to those described in Example 2 relative to the pediatric leukemia cells, whereas the lung cancer treatment method was the same as described in Example 1.

[2] = system: human ovarian cancer cells (A1847); test: Cell death in ovarian cancer spheroids, PrestoBlue; details: techniques of Example 1
Description: as §1, §2
(§3) The cells were treated and tested as set forth in Example 1.

[3] = system: human prostate cancer cells (22rv1); test: Cell death in prostate cancer spheroids, PrestoBlue; details: techniques of Example 1
Description: as §1, §2, §3

[4] = system: ovarian cancer cells; test: Synergism with doxorubicin on ovarian cancer spheroids; details: low doses, up to 0.158 μM
Description: In this test, the synergism of GZ17-6.02 with doxorubicin (a common chemotherapy drug) was tested on ovarian cancer cells. In this test, increasing doses of doxorubicin were administered to ovarian cancer spheroids and cell deaths were measured, as described in Example 1. The protocol involved testing doxorubicin alone at various dosages (FIG. 8, doxorubicin alone—closed circles), with comparative tests using the various dosages of doxorubicin in combination with either 0.2 mg/mL (FIG. 8 open circles) or 0.4 mg/mL (FIG. 8 closed triangles) GZ17-6.02. Additionally, the induced cell death results from use of 0.2 mg/mL GZ17-6.02 alone (FIG. 8, line A) and 0.4 mg/mL GZ17-6.02 alone (FIG. 8, line B) were determined.

In the case of `Cc1nccc2c1[nH]c1cc(O)ccc12.Cl` [harmole hydrochloride], the “anticancer effects (cell number versus increasing concentrations), compound alone” value [1] is reported as “demonstrated anticancer effects”, the “anticancer effects (cell number versus increasing concentrations), compound alone” value [2] is reported as “demonstrated anticancer effects” and the “anticancer effects (cell number versus increasing concentrations), compound alone” value [3] is reported as “demonstrated anticancer effects”.

`COc1ccc(CO)cc1O` [isovanillyl alcohol] was tested, and the “anticancer effects (cell number versus increasing concentrations), compound alone” value [1] was “demonstrated anticancer effects”, the “anticancer effects (cell number versus increasing concentrations), compound alone” value [2] was “demonstrated anticancer effects” and the “anticancer effects (cell number versus increasing concentrations), compound alone” value [3] was “demonstrated anticancer effects”.

For `COc1cccc2c1C(=O)c1c(O)c3c(c(O)c1C2=O)C[C@@](O)(C(=O)CO)C[C@@H]3O[C@H]1C[C@H](N)[C@H](O)[C@H](C)O1` [doxorubicin], the “cell death, doxorubicin alone” value [4] was “ineffective”.

`COc1ccc(C(=O)O)cc1O` [isovanillic acid] was tested, and the “anticancer effects (cell number versus increasing concentrations), compound alone” value [1] was “demonstrated anticancer effects”, the “anticancer effects (cell number versus increasing concentrations), compound alone” value [2] was “demonstrated anticancer effects” and the “anticancer effects (cell number versus increasing concentrations), compound alone” value [3] was “demonstrated anticancer effects”.

`CC1=NCCc2c1[nH]c1cc(O)ccc21.Cl` [harmalol hydrochloride] was tested, and the “anticancer effects (cell number versus increasing concentrations), compound alone” value [1] was “demonstrated anticancer effects”, the “anticancer effects (cell number versus increasing concentrations), compound alone” value [2] was “demonstrated anticancer effects” and the “anticancer effects (cell number versus increasing concentrations), compound alone” value [3] was “demonstrated anticancer effects”.

In the case of `COc1ccc2c3c([nH]c2c1)C(C)=NCC3` [harmaline], the “anticancer effects (cell number versus increasing concentrations), compound alone” value [1] is reported as “demonstrated anticancer effects”, the “anticancer effects (cell number versus increasing concentrations), compound alone” value [2] is reported as “demonstrated anticancer effects” and the “anticancer effects (cell number versus increasing concentrations), compound alone” value [3] is reported as “demonstrated anticancer effects”.

For `COc1ccc2c3c([nH]c2c1)[C@@H](C)NCC3` [tetrahydro-harmine], the “anticancer effects (cell number versus increasing concentrations), compound alone” value [1] was “demonstrated anticancer effects”, the “anticancer effects (cell number versus increasing concentrations), compound alone” value [2] was “demonstrated anticancer effects” and the “anticancer effects (cell number versus increasing concentrations), compound alone” value [3] was “demonstrated anticancer effects”.

For `COc1cc(C=O)ccc1O` [vanillin], the “anticancer effects (cell number versus increasing concentrations), compound alone” value [1] was “demonstrated anticancer effects”, the “anticancer effects (cell number versus increasing concentrations), compound alone” value [2] was “demonstrated anticancer effects” and the “anticancer effects (cell number versus increasing concentrations), compound alone” value [3] was “demonstrated anticancer effects”.

In the case of `COc1cccc(C=O)c1O` [O-vanillin], the “anticancer effects (cell number versus increasing concentrations), compound alone” value [1] is reported as “demonstrated anticancer effects”, the “anticancer effects (cell number versus increasing concentrations), compound alone” value [2] is reported as “demonstrated anticancer effects” and the “anticancer effects (cell number versus increasing concentrations), compound alone” value [3] is reported as “demonstrated anticancer effects”.
